{"source": "ChEMBL document CHEMBL1153047", "about": "“Discovery of N-[(1-aryl-1H-indazol-5-yl)methyl]amides derivatives as smoothened antagonists for inhibition of the hedgehog pathway” (Bioorg Med Chem Lett, 2009)", "molecular_target": "Protein smoothened (Homo sapiens, UniProt Q99835)", "sequence (Q99835 whole entry)": "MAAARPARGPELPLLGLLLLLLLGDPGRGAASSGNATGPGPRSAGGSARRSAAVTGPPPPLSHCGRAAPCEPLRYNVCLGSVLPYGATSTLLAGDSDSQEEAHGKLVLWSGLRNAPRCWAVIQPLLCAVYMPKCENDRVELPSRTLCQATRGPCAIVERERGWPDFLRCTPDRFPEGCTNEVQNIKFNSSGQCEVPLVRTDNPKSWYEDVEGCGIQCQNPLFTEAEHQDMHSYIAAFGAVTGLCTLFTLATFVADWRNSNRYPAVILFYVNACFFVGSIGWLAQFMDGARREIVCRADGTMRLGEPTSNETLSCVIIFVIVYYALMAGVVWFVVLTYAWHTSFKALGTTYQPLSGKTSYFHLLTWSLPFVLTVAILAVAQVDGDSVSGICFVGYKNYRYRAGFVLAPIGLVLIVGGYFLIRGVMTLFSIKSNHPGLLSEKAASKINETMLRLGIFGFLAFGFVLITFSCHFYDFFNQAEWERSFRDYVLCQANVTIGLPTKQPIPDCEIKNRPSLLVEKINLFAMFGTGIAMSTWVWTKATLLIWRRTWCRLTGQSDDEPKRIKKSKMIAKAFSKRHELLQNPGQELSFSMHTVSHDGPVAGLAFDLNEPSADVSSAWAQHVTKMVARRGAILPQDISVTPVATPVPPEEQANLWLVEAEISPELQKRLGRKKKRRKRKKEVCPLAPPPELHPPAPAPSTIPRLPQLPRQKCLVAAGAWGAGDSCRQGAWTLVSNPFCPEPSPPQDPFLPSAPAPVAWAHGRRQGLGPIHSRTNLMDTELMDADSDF", "assay": "Inhibition of BODIPY-cyclopamine to Smo in human HEK293 Flag-Smo cells in presence of 2% FCS", "type": "cell-based", "note": "pIC50: −log10 of the molar value.", "data": [{"smiles": "O=C(Cc1ccccc1)NCc1ccc2c(cnn2-c2ccc(F)cc2)c1", "values": [{"measurement": "pIC50", "result": "< 5.00"}]}]}
